Experimental data: patent publication US12371428B2 (Exelixis, Inc., priority 2019, dated 2025)

What was measured:
[1] = biological target: Met (phospho-Met, HGF-stimulated PC-3 prostate cancer cells) (Homo sapiens (Human), UniProt P08581); assay: Met autophosphorylation ELISA in PC-3 cells (Example F); format: cell-based; conditions: cellular activity; Met autophosphorylation ELISA in PC-3 cells; read-out: c-Met IC50
Method in brief: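 Serum-starved (3 h) PC-3 cells were treated 1 h with compounds (8-point curve, 0.3% DMSO), then stimulated with 100 ng/mL human HGF for 10 min. Lysate phospho-Met (panTyr) was measured by sandwich ELISA, normalised to DMSO and reference-inhibitor controls. IC50 came from 4-parameter logistic fit.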

[2] = biological target: KDR (phospho-KDR, VEGF165-stimulated HUVEC cells) (Homo sapiens (Human), UniProt P35968); assay: KDR autophosphorylation ELISA in HUVEC cells (Example G); format: cell-based; conditions: cellular activity; KDR autophosphorylation ELISA in HUVEC cells
Method in brief: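 HUVEC cells, serum-starved 24 h, were treated 1 h with an 8-point compound dilution (0.3% DMSO) and then stimulated with 100 ng/mL VEGF165 for 5 min. Phospho-KDR in lysates was quantified by sandwich ELISA against a phospho-KDR standard. IC50 from a 4-parameter logistic fit, normalised between stimulated DMSO and unstimulated controls.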

Sequence of Met (phospho-Met, HGF-stimulated PC-3 prostate cancer cells) (P08581 25-1390): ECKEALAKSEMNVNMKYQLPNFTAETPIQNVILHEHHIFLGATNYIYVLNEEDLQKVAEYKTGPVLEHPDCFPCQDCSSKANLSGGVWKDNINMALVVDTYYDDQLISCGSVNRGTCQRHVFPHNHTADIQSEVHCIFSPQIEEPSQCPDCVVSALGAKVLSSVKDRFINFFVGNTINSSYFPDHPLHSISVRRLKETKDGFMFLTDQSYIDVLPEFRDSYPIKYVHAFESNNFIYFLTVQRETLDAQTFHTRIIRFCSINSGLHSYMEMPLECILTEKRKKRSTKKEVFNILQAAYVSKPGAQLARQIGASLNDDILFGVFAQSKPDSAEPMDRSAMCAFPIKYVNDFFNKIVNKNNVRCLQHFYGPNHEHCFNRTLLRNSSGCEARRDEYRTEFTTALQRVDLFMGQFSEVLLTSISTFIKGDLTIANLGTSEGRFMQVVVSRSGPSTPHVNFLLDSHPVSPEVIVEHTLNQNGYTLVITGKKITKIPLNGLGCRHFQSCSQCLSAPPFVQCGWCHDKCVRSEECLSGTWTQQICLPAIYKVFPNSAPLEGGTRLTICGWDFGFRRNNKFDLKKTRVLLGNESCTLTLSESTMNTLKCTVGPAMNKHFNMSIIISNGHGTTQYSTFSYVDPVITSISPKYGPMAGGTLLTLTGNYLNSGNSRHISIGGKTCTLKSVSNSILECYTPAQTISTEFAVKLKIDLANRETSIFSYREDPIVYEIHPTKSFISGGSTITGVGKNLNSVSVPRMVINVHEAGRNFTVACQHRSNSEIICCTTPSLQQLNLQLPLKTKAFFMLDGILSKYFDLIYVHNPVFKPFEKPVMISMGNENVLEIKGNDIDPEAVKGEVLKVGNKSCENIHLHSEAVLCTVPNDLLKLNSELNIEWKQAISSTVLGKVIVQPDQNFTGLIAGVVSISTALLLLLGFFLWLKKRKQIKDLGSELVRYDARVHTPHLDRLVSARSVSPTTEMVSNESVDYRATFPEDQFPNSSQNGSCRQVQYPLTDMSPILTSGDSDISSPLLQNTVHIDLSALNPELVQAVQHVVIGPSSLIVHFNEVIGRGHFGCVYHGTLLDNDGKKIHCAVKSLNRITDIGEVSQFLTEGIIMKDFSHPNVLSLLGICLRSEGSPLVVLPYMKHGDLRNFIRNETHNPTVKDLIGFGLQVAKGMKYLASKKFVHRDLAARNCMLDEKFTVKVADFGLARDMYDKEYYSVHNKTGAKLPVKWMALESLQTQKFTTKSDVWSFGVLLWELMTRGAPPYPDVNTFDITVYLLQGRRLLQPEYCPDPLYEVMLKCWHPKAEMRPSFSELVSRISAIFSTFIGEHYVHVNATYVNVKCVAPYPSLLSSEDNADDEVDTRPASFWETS
Sequence of KDR (phospho-KDR, VEGF165-stimulated HUVEC cells) (P35968 20-1356): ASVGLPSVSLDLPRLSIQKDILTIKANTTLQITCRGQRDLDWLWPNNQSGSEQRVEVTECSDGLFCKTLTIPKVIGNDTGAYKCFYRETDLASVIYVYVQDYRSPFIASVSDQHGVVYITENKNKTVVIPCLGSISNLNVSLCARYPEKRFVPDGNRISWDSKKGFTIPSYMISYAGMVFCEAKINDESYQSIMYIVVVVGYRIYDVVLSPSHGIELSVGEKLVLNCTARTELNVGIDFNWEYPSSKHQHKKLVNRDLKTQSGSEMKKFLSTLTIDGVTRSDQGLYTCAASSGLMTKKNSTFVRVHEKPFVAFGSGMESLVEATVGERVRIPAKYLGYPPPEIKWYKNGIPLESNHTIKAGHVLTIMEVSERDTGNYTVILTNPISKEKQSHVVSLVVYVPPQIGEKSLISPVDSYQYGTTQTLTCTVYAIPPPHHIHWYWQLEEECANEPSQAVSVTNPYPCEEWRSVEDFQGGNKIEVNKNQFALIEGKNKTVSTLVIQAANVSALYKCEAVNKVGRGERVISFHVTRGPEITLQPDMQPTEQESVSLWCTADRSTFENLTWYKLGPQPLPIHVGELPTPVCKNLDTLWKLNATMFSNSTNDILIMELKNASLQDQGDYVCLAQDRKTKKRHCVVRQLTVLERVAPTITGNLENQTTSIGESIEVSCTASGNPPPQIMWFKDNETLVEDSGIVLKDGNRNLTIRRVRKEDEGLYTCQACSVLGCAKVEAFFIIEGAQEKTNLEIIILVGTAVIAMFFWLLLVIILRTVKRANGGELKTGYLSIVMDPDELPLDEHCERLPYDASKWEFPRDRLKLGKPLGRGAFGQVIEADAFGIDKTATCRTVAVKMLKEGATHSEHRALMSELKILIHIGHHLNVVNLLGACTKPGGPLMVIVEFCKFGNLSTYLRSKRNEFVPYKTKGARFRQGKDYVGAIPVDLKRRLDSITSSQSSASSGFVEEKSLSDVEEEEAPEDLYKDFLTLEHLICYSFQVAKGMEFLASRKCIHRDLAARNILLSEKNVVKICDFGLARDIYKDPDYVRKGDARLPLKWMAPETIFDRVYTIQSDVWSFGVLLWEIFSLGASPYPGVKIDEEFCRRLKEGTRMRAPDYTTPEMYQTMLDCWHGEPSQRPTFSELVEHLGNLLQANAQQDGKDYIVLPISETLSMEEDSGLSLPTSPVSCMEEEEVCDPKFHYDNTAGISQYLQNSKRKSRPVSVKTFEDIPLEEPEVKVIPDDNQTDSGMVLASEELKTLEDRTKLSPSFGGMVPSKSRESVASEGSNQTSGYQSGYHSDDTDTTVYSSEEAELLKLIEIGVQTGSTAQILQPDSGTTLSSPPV

| SMILES | IC50 [1] | IC50 [2] |
| --- | --- | --- |
| C=C(C)c1cnc2c(Oc3ccc(NC(=O)c4c(C)nc(C)c(-c5ccc(F)cc5)c4O)cc3)ccnc2c1 [Compound 455, 5-(4-fluorophenyl)-4-hydroxy-2,6-dimethyl-N-[4-[(7-prop-1-en-2-yl-1,5-naphthyridin-4-yl)oxy]phenyl]pyridine-3-carboxamide] | < 0.1 µM | < 0.1 µM |
| COc1nc2c(Oc3ccc(NC(=O)c4cnc(C)c(-c5ccc(F)cc5)c4O)cc3F)ccnc2cc1C [Compound 458, N-[3-fluoro-4-[(6-methoxy-7-methyl-1,5-naphthyridin-4-yl)oxy]phenyl]-5-(4-fluorophenyl)-4-hydroxy-6-methylpyridine-3-carboxamide] | < 0.1 µM | < 0.1 µM |
| COc1cc2nccc(Oc3ccc(NC(=O)c4c(C)n(C)cc(-c5ccc(F)cc5C)c4=O)cc3F)c2nc1OC [Compound 481, N-[4-[(6,7-dimethoxy-1,5-naphthyridin-4-yl)oxy]-3-fluorophenyl]-5-(4-fluoro-2-methylphenyl)-1,2-dimethyl-4-oxopyridine-3-carboxamide] | < 0.1 µM | < 0.1 µM |
| COc1cnc2c(Oc3ccc(NC(=O)c4cc(C)nn(-c5ccc(F)cc5)c4=O)cc3F)ccnc2c1 [Compound 521, N-[3-fluoro-4-[(7-methoxy-1,5-naphthyridin-4-yl)oxy]phenyl]-2-(4-fluorophenyl)-6-methyl-3-oxopyridazine-4-carboxamide] | 0.1 to 0.3 µM | > 0.3 µM |
| COc1cc2nccc(Oc3ccc(NC(=O)c4c(C)ncc(-c5ccc(F)cc5C)c4O)cc3F)c2nc1OC [Compound 479, N-[4-[(6,7-dimethoxy-1,5-naphthyridin-4-yl)oxy]-3-fluorophenyl]-5-(4-fluoro-2-methylphenyl)-4-hydroxy-2-methylpyridine-3-carboxamide] | < 0.1 µM | < 0.1 µM |
| CNc1nccc2c(Oc3ccc(NC(=O)c4cnc(C)n(-c5ccc(F)cc5)c4=O)cc3)ccnc12 [Compound 543, 1-(4-fluorophenyl)-2-methyl-N-[4-[[8-(methylamino)-1,7-naphthyridin-4-yl)oxy]phenyl]-6-oxopyrimidine-5-carboxamide] | < 0.1 µM | 0.1 to 0.3 µM |
| COc1cc2nccc(Oc3ccc(NC(=O)c4cnc(C)c(-c5ccc(F)cc5)c4O)cc3F)c2nc1C [Compound 541, N-[3-fluoro-4-[(7-methoxy-6-methyl-1,5-naphthyridin-4-yl)oxy]phenyl]-5-(4-fluorophenyl)-4-hydroxy-6-methylpyridine-3-carboxamide] | < 0.1 µM | < 0.1 µM |
| COc1cnc2c(Oc3ccc(NC(=O)c4nn(C)c(C)c(-c5ccc(F)cc5C)c4=O)cc3)ccnc2c1 [Compound 514, 5-(4-fluoro-2-methylphenyl)-N-[4-[(7-methoxy-1,5-naphthyridin-4-yl)oxy]phenyl]-1,6-dimethyl-4-oxopyridazine-3-carboxamide] | < 0.1 µM | < 0.1 µM |
| COc1nc2c(Oc3ccc(NC(=O)c4cnc(C)c(-c5ccc(F)cc5C)c4O)cc3F)ccnc2cc1C [Compound 460, N-[3-fluoro-4-[(6-methoxy-7-methyl-1,5-naphthyridin-4-yl)oxy]phenyl]-5-(4-fluoro-2-methylphenyl)-4-hydroxy-6-methylpyridine-3-carboxamide] | < 0.1 µM | < 0.1 µM |
| COCc1nc(C)c(-c2ccc(F)cc2)c(O)c1C(=O)Nc1ccc(Oc2ccnc3ccc(OC)cc23)c(F)c1 [Compound 525, N-[3-fluoro-4-(6-methoxyquinolin-4-yl)oxyphenyl]-5-(4-fluorophenyl)-4-hydroxy-2-(methoxymethyl)-6-methylpyridine-3-carboxamide] | < 0.1 µM | < 0.1 µM |
| COc1cc2nccc(Oc3ccc(NC(=O)c4c(C)c(C)nn(-c5ccc(F)cc5)c4=O)cc3F)c2nc1OC [Compound 524, N-[4-[(6,7-dimethoxy-1,5-naphthyridin-4-yl)oxy]-3-fluorophenyl]-2-(4-fluorophenyl)-5,6-dimethyl-3-oxopyridazine-4-carboxamide] | < 0.1 µM | 0.1 to 0.3 µM |
| COc1cc2ncnc(Oc3ccc(NC(=O)c4c5n(cc(-c6ccc(F)cc6)c4=O)CCC5)cc3F)c2cc1OC [Compound 406, N-[4-(6,7-dimethoxyquinazolin-4-yl)oxy-3-fluorophenyl]-6-(4-fluorophenyl)-7-oxo-2,3-dihydro-1H-indolizine-8-carboxamide] | < 0.1 µM | < 0.1 µM |
| COCCOc1cnc2c(Oc3ccc(NC(=O)c4ccc(C)n(-c5ccc(F)cc5)c4=O)cc3F)ccnc2c1 [Compound 552, N-[3-Fluoro-4-[[7-(2-methoxyethoxy)-1,5-naphthyridin-4-yl]oxy]phenyl]-1-(4-fluorophenyl)-6-methyl-2-oxopyridine-3-carboxamide] | < 0.1 µM | < 0.1 µM |
| COc1cc2nccc(Oc3ccc(NC(=O)c4cn(C)c(CF)c(-c5ccc(F)cc5C)c4=O)cc3F)c2nc1OC [Compound 556, N-[4-[(6,7-Dimethoxy-1,5-naphthyridin-4-yl)oxy]-3-fluorophenyl]-6-(fluoromethyl)-5-(4-fluoro-2-methylphenyl)-1-methyl-4-oxopyridine-3-carboxamide] | < 0.1 µM | < 0.1 µM |
| COc1cc2nccc(Oc3ccc(NC(=O)c4cn(C)cc(-c5ccc(F)cc5C)c4=O)cc3F)c2nc1OC [Compound 503, N-[4-[(6,7-dimethoxy-1,5-naphthyridin-4-yl)oxy]-3-fluorophenyl]-5-(4-fluoro-2-methylphenyl)-1-methyl-4-oxopyridine-3-carboxamide] | < 0.1 µM | < 0.1 µM |
| COc1cc2nccc(Oc3ccc(NC(=O)c4nn(C)c(C)c(-c5ccc(F)cc5C)c4=O)cc3F)c2nc1OC [Compound 512, N-[4-[(6,7-dimethoxy-1,5-naphthyridin-4-yl)oxy]-3-fluorophenyl]-5-(4-fluoro-2-methylphenyl)-1,6-dimethyl-4-oxopyridazine-3-carboxamide] | < 0.1 µM | < 0.1 µM |
| Cc1cc(F)ccc1-c1c(C)nc(C)c(C(=O)Nc2ccc(Oc3ccnc4cccnc34)c(F)c2)c1O [Compound 505, 5-(4-fluoro-2-methylphenyl)-N-[3-fluoro-4-(1,5-naphthyridin-4-yloxy)phenyl]-4-hydroxy-2,6-dimethylpyridine-3-carboxamide] | < 0.1 µM | < 0.1 µM |
| COc1cc2nccc(Oc3ccc(NC(=O)c4cnc(SC(C)C)n(-c5ccc(F)cc5)c4=O)cc3)c2cc1OC [Compound 539, N-[4-(6,7-dimethoxyquinolin-4-yl)oxyphenyl]-1-(4-fluorophenyl)-6-oxo-2-propan-2-ylsulfanylpyrimidine-5-carboxamide] | < 0.1 µM | > 0.3 µM |
| CCn1cc(C(=O)Nc2ccc(Oc3ccnc4cc(OC)c(OC)nc34)cc2)c(=O)c(-c2ccc(F)cc2)c1CF [Compound 558, N-[4-[(6,7-Dimethoxy-1,5-naphthyridin-4-yl)oxy]phenyl]-1-ethyl-6-(fluoromethyl)-5-(4-fluorophenyl)-4-oxopyridine-3-carboxamide] | < 0.1 µM | 0.1 to 0.3 µM |
